Results as given in patent US20260373266A1, “PROTEIN DEGRADERS AND USES THEREOF” (KYMERA THERAPEUTICS, INC., priority 2022, published 2026).
pKd: −log10 of the molar value.

Molecular target: T1, DCAF1 WD40 domain (residues 1077-1390) (Homo sapiens, UniProt Q9Y4B6)
T1 construct: DCAF1 WD40 domain (residues 1077-1390)
Test: DCAF1 binding assay by SPR (Biacore 8K+), DCAF1-3 KD
Details: 25 °C, read-out: DCAF1-3 SPR (KD)

T1 sequence (Q9Y4B6 1077-1390): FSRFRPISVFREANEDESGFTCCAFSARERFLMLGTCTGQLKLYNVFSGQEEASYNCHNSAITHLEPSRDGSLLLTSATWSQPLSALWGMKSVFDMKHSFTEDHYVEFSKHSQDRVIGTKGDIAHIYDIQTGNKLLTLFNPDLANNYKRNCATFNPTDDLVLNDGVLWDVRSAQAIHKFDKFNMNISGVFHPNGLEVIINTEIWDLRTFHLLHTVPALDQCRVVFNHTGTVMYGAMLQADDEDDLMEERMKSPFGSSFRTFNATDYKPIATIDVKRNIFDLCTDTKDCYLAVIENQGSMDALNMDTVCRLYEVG

In the case of `Cc1cccc(F)c1-c1c(C(=O)N[C@@H](CC(N)=O)c2cccc(Cl)c2)c[nH]c1C#N` [I-637], the pKd was > 5.00.

With `CS(=O)(=O)CCCC(=O)N1CCC[C@@H](Nc2cc(N3CCOCC3)ccn2)C1` [I-768] the pKd was < 3.70.

`O[C@@H]1CCCN(c2ccnc(N3CC[C@H]4[C@@H]3CCCN4c3cccc(F)c3)c2)C1` [I-799] was tested, and the pKd was < 3.70.

For `O[C@@H]1C[C@@H](Nc2cc(N3CCOCC3)ncn2)CN(c2cccc(F)c2)C1` [I-163], the pKd was < 3.70.

With `COCCn1cc(C(=O)N[C@@H](CC(N)=O)c2cccc(Cl)c2)c(-c2ccccc2F)n1` [I-120] the pKd was 4.00 to 5.00.

`NC(=O)Cc1cccc(N2CCC[C@@H](Nc3cc(N4CCOCC4)ccn3)C2)c1` [I-776] was tested, and the pKd was < 3.70.

For `C=CC(=O)N(C)[C@H]1C[C@H](N(C)c2ccnc(N[C@@H]3CCCN(c4cccc(F)c4)C3)c2)C1` [I-480], the pKd was < 3.70.

For `Cc1nc(Nc2ncc(C(=O)Nc3c(C)cccc3Cl)s2)cc(N2CCC(OC3CCN(CCCCCCCC(=O)N4CCN(c5ccc6c(NCCN)nc(C7(c8ccc(Cl)cc8)CCCCC7)nc6c5)CC4)CC3)CC2)n1` [I-1053], the pKd was > 5.00.

For `Cc1ccc(Cl)cc1[C@H](CC(N)=O)NC(=O)c1cn[nH]c1-c1ccccc1F` [I-583], the pKd was > 5.00.

`Cc1c(F)ccc(F)c1-c1c(C(=O)N[C@@H](CC(N)=O)c2cccc(Cl)c2)c[nH]c1S(C)(=O)=O` [I-882] was tested, and the pKd was > 5.00.

For `Nc1ncc(N[C@@H]2CCCN(c3cccc(F)c3)C2)cc1N1CCOCC1` [I-546], the pKd was > 5.00.

`Fc1cccc(N2CCC[C@@H](Cc3cc(N4CCOCC4)[nH]n3)C2)c1` [I-631] was tested, and the pKd was < 3.70.

For `Cc1sc2c(c1C)C(c1ccc(Cl)cc1)=N[C@@H](CC(=O)NCCOCCOCCOCCOCCOCC(=O)c1[nH]cc(C(=O)N[C@@H](CC(=O)N(C)C)c3cccc(Cl)c3)c1-c1c(F)ccc(F)c1C)c1nnc(C)n1-2` [I-911], the pKd was > 5.00.

For `c1cc(N2CCC[C@@H](Nc3cc(N4CCOCC4)ncn3)C2)c2cccnc2c1` [I-393], the pKd was < 3.70.

With `Fc1cccc(N2CCC[C@@H](N(CC(F)F)c3cc(N4CCOCC4)ccn3)C2)c1` [I-257] the pKd was < 3.70.

For `NCCOCCOCCOCCOCCOCCOCCC1CCN(c2ccnc(N3CC[C@@H]4[C@H]3CCCN4c3cccc(F)c3)c2)CC1` [I-661], the pKd was > 5.00.

For `NC(=O)[C@H]1CCN(C(=O)c2c[nH]nc2-c2ccccc2F)[C@@H]1c1cccc(Cl)c1` [I-203], the pKd was < 3.70.

With `Fc1cccc([C@H]2CCC[C@@H](Nc3cc(N4CCOCC4)ccn3)C2)c1` [I-180] the pKd was < 3.70.

Compound `CCCCCCC[C@H]1CCCN(c2ccnc(N3CC[C@H]4[C@@H]3CCCN4c3cccc(F)c3)c2)C1` [I-729] has a pKd of 4.00 to 5.00.

With `NC(=O)C[C@H](NC(=O)c1c[nH]nc1-c1ccc[nH]c1=O)c1cccc(Cl)c1` [I-156] the pKd was < 3.70.

With `CN(c1cccc(F)c1)C1CCCN(c2cc(N3CCCCC3)ccn2)C1` (centres unmarked) [I-660] the pKd was < 3.70.

Compound `NC[C@H]1C[C@@H](Nc2cc(N3CCCCC3)ccn2)CN(c2cccc(F)c2)C1` [I-1041] has a pKd of 4.00 to 5.00.

For `CO/N=C(/c1ccccc1)c1[nH]cc(C(=O)N[C@@H](CC(N)=O)c2cccc(Cl)c2)c1-c1c(F)ccc(F)c1C` [I-758], the pKd was > 5.00.

`NS(=O)(=O)c1nc(N2CCC[C@@H](Nc3cc(N4CCOCC4)ccn3)C2)cs1` [I-413] was tested, and the pKd was < 3.70.

With `NCCOCCOCCOCCOCCOCCC1CCN(c2ccnc(N3CC[C@@H]4[C@H]3CCCN4c3cccc(F)c3)c2)CC1` [I-651] the pKd was > 5.00.

Work on `O[C@@]1(c2ccccc2)CCC[C@@H](Nc2cc(N3CCCCC3)ccn2)C1` [I-929] yielded a pKd of 4.00 to 5.00.

With `Fc1cccc(N2CCC3CCCc4ncc(N5CCOCC5)cc4N[C@H]3C2)c1` (some centres unmarked) [I-227] the pKd was < 3.70.

In the case of `c1ccc([C@@H]2CCC[C@H](Nc3cc(N4CCCCC4)ccn3)C2)cc1` [I-753], the pKd was 4.00 to 5.00.

`NC(=O)C[C@H](NC(=O)c1[nH][nH]c(=O)c1-c1ccccc1F)c1cccc(Cl)c1` [I-548] was tested, and the pKd was < 3.70.

With `NC(=O)C[C@H](NC(=O)c1n[nH]c2c1NCCC2)c1cccc(Cl)c1` [I-299] the pKd was < 3.70.

Compound `c1cc2ccnc(N3CCC[C@@H](Nc4cc(N5CCOCC5)ccn4)C3)c2cn1` [I-68] has a pKd of 3.70 to 4.00.

In the case of `CC1=C(c2[nH]ncc2C(=O)N[C@@H](CC(N)=O)c2cccc(Cl)c2)CCCC1` [I-610], the pKd was > 5.00.

In the case of `C=CC(=O)N1CC2(CCN(c3ccnc(N[C@@H]4CCCN(c5cccc(F)c5)C4)c3)CC2)C1` [I-465], the pKd was < 3.70.

`NCC(=O)N1CC2(CCCN(c3cccc(F)c3)C2)Nc2cc(N3CCCCC3)ncc21` (centres unmarked) [I-1020] gave a pKd of 4.00 to 5.00.

In the case of `Nc1ccc(N2CCC[C@@H]3[C@H]2CCN3c2cc(N3CC4CC(C4)C3)ccn2)cc1F` [I-733], the pKd was > 5.00.

In the case of `CN1CCN(c2ccc(N3CCC[C@@H](Nc4cc(N5CCOCC5)ccn4)C3)nc2)CC1` [I-686], the pKd was < 3.70.

For `OCCN(c1nc(N2CCOCC2)c[nH]1)[C@H]1CCCN(c2cccc(F)c2)C1` [I-372], the pKd was < 3.70.

For `Fc1cccc([C@@H]2CCC[C@@H](Nc3cc(N4CCOCC4)ccn3)C2)c1` [I-184], the pKd was < 3.70.

`Fc1cccc(N2CCC[C@@H](Nc3cccc(N4CCOCC4)n3)C2)c1` [I-17] showed a pKd of 3.70 to 4.00.

With `Cc1c(F)ccc(F)c1-c1c(C(=O)N[C@@H](CC(N)=O)c2cccc(Cl)c2)c[nH]c1C(=O)c1ccc(CCCOCCOCCOCCN)cc1` [I-806] the pKd was > 5.00.

For `c1cncc(-c2csc(N3CCC[C@@H](Nc4cc(N5CCOCC5)ccn4)C3)n2)c1` [I-412], the pKd was < 3.70.

For `COC(=O)c1cc(-c2cccc(N3CCC[C@@H](Nc4cc(N5CCOCC5)ccn4)C3)c2)on1` [I-785], the pKd was < 3.70.

With `CC(F)(c1cc(N2CCOCC2)ccn1)C1CCCN(c2cccc(F)c2)C1` (centres unmarked) [I-266] the pKd was < 3.70.

`C=CC(=O)NCCCCN1CCN(c2ccnc(N(CCCOCCOCCOCCOCCNC(=O)C[C@@H]3N=C(c4ccc(Cl)cc4)c4c(sc(C)c4C)-n4c(C)nnc43)[C@@H]3CCCN(c4cccc(F)c4)C3)c2)CC1` [I-906] was tested, and the pKd was 3.70 to 4.00.

For `Fc1cccc(N2CCC[C@@H](Nc3cc([C@@H]4CCCCO4)ccn3)C2)c1` [I-94], the pKd was < 3.70.

For `NC(=O)C[C@H](NC(=O)c1cn[nH]c1-c1ccccc1F)c1ccccn1` [I-340], the pKd was < 3.70.

`CNC(=O)C[C@H](NC(=O)c1c[nH]c(C(=O)COCCOCCOCCOCCOCCNC(=O)C[C@@H]2N=C(c3ccc(Cl)cc3)c3c(sc(C)c3C)-n3c(C)nnc32)c1-c1c(F)ccc(F)c1C)c1cccc(Cl)c1` [I-910] was tested, and the pKd was > 5.00.

In the case of `Fc1cccc(N2CCC[C@@H](Nc3cncc(N4CCCCC4)c3)C2)c1` [I-528], the pKd was < 3.70.

`c1ccc2c(N3CCC[C@@H](Nc4nccc(N5CCOCC5)n4)C3)nccc2c1` [I-36] gave a pKd of 4.00 to 5.00.

`C[C@H]1CC[C@H](O)CN1c1ccnc(N2CC[C@@H]3[C@H]2CCCN3c2cccc(F)c2)c1` [I-823] was tested, and the pKd was > 5.00.

In the case of `CN1CCN(c2ccnc(N[C@@H]3CCCN(c4cccc(F)c4)C3)n2)CC1` [I-315], the pKd was < 3.70.

With `Cc1[nH]nc(C(=O)N[C@@H](CC(N)=O)c2cccc(Cl)c2)c1-c1ccccc1F` [I-230] the pKd was < 3.70.

For `NC(=O)C[C@H](NC(=O)c1cnn(Cc2cncs2)c1-c1ccccc1F)c1cccc(Cl)c1` [I-167], the pKd was < 3.70.

`C[C@H](C(N)=O)[C@H](NC(=O)c1c[nH]nc1-c1ccccc1F)c1cccc(Cl)c1` [I-212] was tested, and the pKd was < 3.70.

For `OCc1cnc2ccc(N3CCC[C@@H](Nc4cc(N5CCCCC5)ccn4)C3)nn12` [I-760], the pKd was < 3.70.

Compound `COCCOCC[C@@H]1CN(c2cc(N3CCCCC3)ccn2)[C@@H]2CCCN(c3cccc(F)c3)[C@H]12` [I-996] has a pKd of 4.00 to 5.00.

With `Cc1c(F)ccc(F)c1-c1c(C(=O)N[C@@H](CC(N)=O)c2cccc(Cl)c2)c[nH]c1C(=O)c1ccc(CCCOCCOCCOCCOCCOCCN)cc1` [I-805] the pKd was > 5.00.

In the case of `NCCCCCCCCCCCCCCC(=O)c1[nH]cc(C(=O)N[C@@H](CC(N)=O)c2cccc(Cl)c2)c1-c1ccccc1F` [I-663], the pKd was < 3.70.

In the case of `OCCc1ccc(N2CCC[C@@H](Nc3cc(N4CCOCC4)ccn3)C2)cc1` [I-860], the pKd was < 3.70.

In the case of `Fc1cccc([C@H]2CCC[C@@H](Nc3cc(N4CCOCC4)ncn3)C2)c1` [I-182], the pKd was < 3.70.

With `O=CNc1ccc(N2CCC[C@H]3[C@@H]2CCN3c2cc(N3CCCCC3)ccn2)cc1F` [I-762] the pKd was < 3.70.

Work on `CC(=O)Nc1ccc(N2CCC[C@@H]3[C@H]2CCN3c2cc(N3CCCCC3)ccn2)cc1F` [I-746] yielded a pKd of 4.00 to 5.00.

In the case of `NC(=O)C[C@H](NC(=O)c1c[nH]nc1-c1cc(=O)[nH]cn1)c1cccc(Cl)c1` [I-238], the pKd was < 3.70.

`NC(=O)C[C@H](NC(=O)c1n[nH]c2ccccc12)c1cccc(Cl)c1` [I-297] was tested, and the pKd was < 3.70.

In the case of `C[C@H]1CCCCN1c1ccnc2c1CCN2C1CCCN(c2cccc(F)c2)C1` (some centres unmarked) [I-788], the pKd was > 5.00.

Compound `CC(C)CNc1ccc(N2CCC[C@@H](Nc3cc(N4CCOCC4)ccn3)C2)cc1` [I-693] has a pKd of 4.00 to 5.00.

`CCCCN1CCN(c2ccnc(N[C@@H]3CCCN(c4cccc(F)c4)C3)c2)CC1` [I-318] was tested, and the pKd was < 3.70.

For `Fc1cccc(N2CCC[C@@H](Nc3cc(C4CCOCC4)ccn3)C2)c1` [I-92], the pKd was < 3.70.

`NC(=O)C[C@H](NC(=O)c1nc(N)sc1-c1ccccc1F)c1cccc(Cl)c1` [I-565] showed a pKd of 3.70 to 4.00.

With `NC(=O)C[C@H](NC(=O)c1cnn(CC2CCCCC2)c1-c1ccccc1F)c1cccc(Cl)c1` [I-165] the pKd was < 3.70.

In the case of `Fc1cccc(N2CCC[C@@H](Nc3cc(N4CC5CCC(CC5)C4)ccn3)C2)c1` [I-618], the pKd was > 5.00.

`Nc1nc(N[C@@H]2CCCN(c3cccc(F)c3)C2)cc(N2CCOCC2)n1` [I-368] was tested, and the pKd was < 3.70.

In the case of `Cc1cccc(F)c1-c1c[nH]cc1C(=O)N[C@@H](CC(N)=O)c1cccc(Cl)c1` [I-592], the pKd was > 5.00.

With `NC(=O)C[C@H](NC(=O)c1cnn(CCc2ccccc2)c1-c1ccccc1F)c1cccc(Cl)c1` [I-170] the pKd was < 3.70.

`Cc1nn(-c2ccccc2)c(C)c1N1CCC[C@@H](Nc2cc(N3CCOCC3)ccn2)C1` [I-418] was tested, and the pKd was < 3.70.

`COc1ccc(N2CCC[C@@H](Nc3cc(N4CCOCC4)ncn3)C2)cc1` [I-10] was tested, and the pKd was < 3.70.

With `c1ccc2c(N3CCC[C@@H](Nc4cc(N5CCOCC5)ncn4)C3)cncc2c1` [I-391] the pKd was < 3.70.

With `CC(=O)NC1CCC2(CC1)CCN(c1ccnc(N3CC[C@@H]4[C@H]3CCCN4c3cccc(F)c3)c1)CC2` [I-1047] the pKd was > 5.00.

In the case of `NC(=O)C[C@H](NC(=O)[C@H]1C[C@@](O)(c2ccccc2)C1)c1cccc(Cl)c1` [I-445], the pKd was < 3.70.

`NCCOCCOCCOCCOCC(=O)c1[nH]cc(C(=O)N[C@@H](CC(N)=O)c2cccc(Cl)c2)c1-c1ccccc1F` [I-674] was tested, and the pKd was > 5.00.
